Experimental data as given in patent US5658908A (priority 1992, dated 1997).
Entries after “also recorded” stand apart in the source; their conditions may differ.

Tests used:
delta receptor = delta receptor (Mus musculus, UniProt P32300); test: Delta opioid receptor agonist activity; conditions: in words
[1] = Side effects on peripheral administration to rats and mice
mu receptor [2] = test: Mu opioid receptor agonist activity; conditions: in words
[3] = Analgesia (test not described); assay type: in vivo; conditions: in words
Mu Receptor [4] = biological target: T1, Mu Receptor (Rattus norvegicus, UniProt P33535); test: Mu receptor binding, rat brain membranes; set-up: species or system rat (Sprague-Dawley); conditions: 125I-[D-Ala2,N-MePhe4,Met(O)ol5]enkephalin 0.1 nM, 24° C., 60 min, mean of (n) experiments, read-out: Mu Receptor IC50
T1 construct: Rat (Sprague-Dawley) brain membranes were prepared; from tissue; host or cells: rat (Sprague-Dawley) brain membranes
T1 sequence (P33535 whole entry): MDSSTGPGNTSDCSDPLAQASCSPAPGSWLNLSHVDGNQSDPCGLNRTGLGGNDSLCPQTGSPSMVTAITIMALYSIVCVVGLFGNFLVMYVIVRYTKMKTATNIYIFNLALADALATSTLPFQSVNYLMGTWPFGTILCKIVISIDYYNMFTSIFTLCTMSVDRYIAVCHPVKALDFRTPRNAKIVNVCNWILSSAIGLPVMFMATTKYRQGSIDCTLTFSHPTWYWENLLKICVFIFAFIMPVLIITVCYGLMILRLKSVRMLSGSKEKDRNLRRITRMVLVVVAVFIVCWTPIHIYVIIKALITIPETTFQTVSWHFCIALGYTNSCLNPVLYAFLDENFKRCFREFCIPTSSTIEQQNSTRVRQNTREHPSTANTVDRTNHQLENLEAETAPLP

mouse vas deferens = biological target: T2, mouse vas deferens (Mus musculus, UniProt P32300); test: cell-based
T2 construct: Vasa deferentia were removed from mice; from tissue; host or cells: mouse vas deferens
T2 sequence (P32300 whole entry): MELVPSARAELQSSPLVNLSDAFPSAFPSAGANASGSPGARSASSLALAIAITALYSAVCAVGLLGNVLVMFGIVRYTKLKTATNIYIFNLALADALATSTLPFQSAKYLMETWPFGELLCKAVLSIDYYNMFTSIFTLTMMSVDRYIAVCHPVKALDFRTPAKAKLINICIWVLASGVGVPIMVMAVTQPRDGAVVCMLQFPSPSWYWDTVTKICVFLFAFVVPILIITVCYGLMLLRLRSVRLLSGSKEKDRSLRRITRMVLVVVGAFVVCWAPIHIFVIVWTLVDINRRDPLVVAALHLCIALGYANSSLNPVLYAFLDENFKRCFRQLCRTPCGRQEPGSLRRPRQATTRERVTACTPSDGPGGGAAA

guinea pig ileum = test: Inhibition of electrically stimulated contraction of guinea pig ileum; assay type: cell-based; conditions: Cavia porcellus, mean of (n) experiments, read-out: Guinea Pig lleum ED50

Chain of delta receptor (P32300 whole entry): as above

| Structure (SMILES) | opioid receptor ligand selectivity (opioid receptor) | delta receptor agonist activity (delta receptor) | side effects when administered peripherally [1] | mu receptor agonist activity (mu receptor [2]) | analgesic activity [3] | IC50 (Mu Receptor [4]) [µM] | Kb (mouse vas deferens) [µM] | IC50 (guinea pig ileum) [µM] |
| --- | --- | --- | --- | --- | --- | --- | --- | --- |
| C=CCN1C[C@H](C)N([C@H](c2cccc(O)c2)c2cc(Br)c(C(=O)N(CC)CC)s2)C[C@H]1C (relative stereo) [Compound B, 5-((αR*)-α-((2S*,5R*)-4-allyl-2,5-dimethyl-1-piperazinyl)-3-hydroxybenzyl)-3-bromo-N,N-diethyl-2-thiophenecarboxamide] | highly selective opioid receptor ligand species | predominantly delta receptor agonist; also recorded: delta-opioid agonist | does not produce evident side effects | – | – | – | – | – |
| C=CCN1C[C@H](C)N([C@@H](c2ccsc2)c2cccc(O)c2)C[C@H]1C (relative stereo) [Compound K] | – | delta-receptor opiate properties | – | significant agonist activity | strong analgesics | – | – | – |
| CCN(CC)C(=O)c1ccc([C@H](c2cccc(O)c2)N2C[C@@H](C)N(C)C[C@H]2C)cc1 [Example 13, (+)-N,N-diethyl-4-(3-hydroxy-(αR)-α-((2R,5R) -2,4,5-trimethyl-1-piperazinyl)benzyl)benzamide] | – | – | – | – | – | 2.4 | 0.1 | > 10 |
